Experimental data from patent US8026110B2, “Combinatorial rosamine library and uses thereof” (New York University, priority 2006, dated 2011).
Entries after “also recorded” stand apart in the source; their conditions may differ.

Test system: DNA
Test: Screening of rosamine library toward 47 analytes: DNA
Assay type: binding
Details: screen of 47 analytes, duplicated, FIG. 10B
Method: The rosamine derivative compounds were screened toward 47 different analytes that include proteins, polysaccharides, nucleic acids, and metal ions. The stock solution of each dye (50 μL) in HEPES (20 mM, pH=7.4) or PBS (20 mM, pH=7.4) was prepared, and diluted with the each analyte (50 μL, 1.0 mg/mL or 200 μM) in the same buffer solution. The final dye concentration varied from 0.5 μM to 10 μM. The fluorescence intensity fold changes of each dye in the presence of analytes were calculated by comparing the fluorescence intensity at the maximum emission wavelength with/without the analyte.

CCN(CCCN(C)C)c1ccc2c(=O)c3ccc(N)cc3oc2c1 [L, 3-Amino-6-[(3-dimethylamino-propyl)-ethyl-amino]-xanthen-9-one]
fluorescence response to DNA: selective response; also recorded: selective increase of fluorescence intensity
